Assay results published in patent US8486962B2, “Antifungal agents” (F2G Ltd., priority 2005, dated 2013).
Converted amounts (≈) assume the structure as drawn.

Legend:
[1] = system: Aspergillus fumigatus AF210; test: MIC, YAG medium, Aspergillus fumigatus AF210; format: cell-based; settings: Aspergillus fumigatus, AF210; YAG medium; read-out: MIC A Fum. 210
How it was run: (§1)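 OD at 485 nm versus drug-free control defines MIC (mg/L): >80% inhibition for Candida albicans in RPMI/2% glucose/MOPS pH7.0 after 24-48 hrs at 35° C, >70% for Aspergillus strains in YAG medium after 24 hrs at 35° C. Spore inocula 1-2×10^4 cfu/ml; yeast 1-2×10^3 cfu/ml.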

Aspergillus flavus = test: MIC, YAG medium, Aspergillus flavus; format: cell-based; settings: Aspergillus flavus; YAG medium; read-out: MIC A Flavus 01
How it was run: as §1

Candida krusei = test: MIC, RPMI medium, Candida krusei; format: cell-based; settings: Pichia kudriavzevii, read-out: MIC C. krusei
Procedure: (§2) Measurement of Minimum Inhibitory Concentrations (MICs)
(§3) Between 1 and 5 mgs of compound were accurately weighed out into a sterile Eppendorf tube. The compound was dissolved in DMSO to give a solution containing 5 mg/ml. Tubes were stored at −20° C. until required.
(§4) On the day of testing thawed solutions were vortex mixed to ensure homogeneity. 30 μl of solution was removed and added to 570 μl of sterile water in a separate sterile Eppendorf. The thoroughly mixed solution was used to prepare a series of doubling dilutions in water, in a deep well plate. Eleven replicate plates were prepared using a Minitrak by aspirating 20 μl from each well into eleven clear polystyrene 96 well plates.
(§5) Spores of Aspergillus spp (Aspergillus fumigatus, Aspergillus terreus, Aspergillus niger and Aspergillus flavus) were harvested from cultures grown on Sabarauds agar for 5 days, and resuspended in PBS/Tween 80 to approx 1×10^7 cfu/ml Other filamentous fungi (Fusarium solani, Scedosporium spp., Trichophyton spp., Absidia corymbifera), were grown on Sabarauds agar for 2-10 days and spores/hyphae resuspended in PBS/Tween to give approx 1×10^7 cfU/ml. Candida species (Candida albicans, Candida glabrata, Candida krusei, Candida parapsilosis and Candida tropicalis) were grown on Sabarauds agar, cells were harvested from the agar using a sterile loop and resuspended in PBS/Tween 80 to approx 1×10^6 cfu/ml. Each organism suspension was diluted in RPMI medium, containing 2% glucose and 0.135M MOPS buffer (pH7.0) to 2×10^4 cfu/ml for Aspergillus spp and other filamentous fungi and 2×10^3 cfu/ml for yeast. 80 μl of an organism suspension was added to each well of the plate containing drug dilutions.
(§6) This produced MIC plates with a drug range 50-0.05 mg/L and organism inocula of 1-2×10^4 cfu/ml for Aspergillus spp and other filamentous fungi and 1-2×10^3 cfu/ml for yeasts. All plates were incubated for 24-48 hrs at 35° C. Growth was assessed by monitoring the optical density at 485 nm for each well. The MIC of a compound is the lowest drug concentration that inhibits growth of an organism by >80% compared with a drug free control. MICs are recorded as mg/L. Other growth media can be used for susceptibility testing, and the activity of the described compounds can also be assessed in a medium comprising, 1% glucose, 1% ammonium chloride and 0.5% yeast extract (YAG medium). To perform MIC tests in this medium, dilutions of compounds are prepared in microtitre plates as described above. Fungal strains to be tested are grown and harvested in an identical manner to that described above, each organism suspension is then diluted in YAG medium to 2×10^4 cfu/ml for Aspergillus spp and other filamentous fungi and 2×10^3 cfu/ml for yeast. 80 μl of an organism suspension was added to each well of the plate containing drug dilutions. This produced MIC plates with a drug range 50-0.05 mg/L and organism inocula of 1-2×10^4 cfu/ml for Aspergillus spp and other filamentous fungi and 1-2×10^3 cfu/ml for yeasts. All plates were incubated for 24 hrs at 35° C. Growth was assessed by monitoring the optical density at 485 nm for each well. The MIC of a compound is the lowest drug concentration that inhibits growth of an organism by >70% compared with a drug free control. MICs are recorded as mg/L. In cases where the MIC of an organism is […]0.05 mg/L the MIC is repeated using a concentration range of 0.5-0.0005 mg/L. MIC tests in YAG medium have more clear-cut endpoints and have slightly lower MICS than those performed in RPMI medium.
(§7) The following organisms were tested: Aspergillus fumigatus AF293 and Aspergillus fumigatus AF210, Aspergillus niger, Aspergillus terreus, Aspergillus favus, Candida albicans, Candida krusei, Candida tropicalis, Candida glabrata, Candida parapsilosis, Trichophyton rubrum, Trichophyton mentagrophytes, Scedosporium prolificans, Scedosporium apiospermum, Absidia corymbifera, Fusarium solani.

A Terreus 49 = test: MIC, YAG medium, A Terreus 49; format: cell-based, Aspergillus terreus; settings: Aspergillus terreus; YAG medium; read-out: MIC A Terreus 49
How it was run: as §1

Candida albicans = test: MIC, RPMI medium, Candida albicans; format: cell-based; settings: read-out: MIC C. albicans
Procedure: as §2, §3, §4, §5, §6, §7

Aspergillus niger = test: MIC, YAG medium, Aspergillus niger; format: cell-based; settings: Aspergillus niger; YAG medium; read-out: MIC A Niger 1
How it was run: as §1

Aspergillus terreus = test: MIC, YAG medium, Aspergillus terreus; format: cell-based; settings: Aspergillus terreus; YAG medium; read-out: MIC A Terreus 4
How it was run: as §1

Candida parapsilosis = test: MIC, RPMI medium, Candida parapsilosis; format: cell-based; settings: Lodderomyces parapsilosis, read-out: MIC C. parapsilosis
Procedure: as §2, §3, §4, §5, §6, §7

Candida tropicalis = test: MIC, RPMI medium, Candida tropicalis; format: cell-based; settings: read-out: MIC C. tropicalis
Procedure: as §2, §3, §4, §5, §6, §7

Candida glabrata = test: MIC, RPMI medium, Candida glabrata; format: cell-based; settings: Nakaseomyces glabratus, read-out: MIC C. glabrata
Procedure: as §2, §3, §4, §5, §6, §7

[2] = system: Aspergillus fumigatus AF293; test: MIC, YAG medium, Aspergillus fumigatus AF293; format: cell-based; settings: Aspergillus fumigatus, AF293; YAG medium; read-out: MIC A Fum. 293
How it was run: as §1

Structure (SMILES): COC(=O)C1CCCN1c1ccc(NC(=O)C(=O)c2c(-c3ccccc3)cc3ccccn23)cc1 (stereo not drawn) [Example 275, 1-{4-[2-Oxo-2-(2-phenyl-indolizin-3-yl)-acetylamino]-phenyl}-pyrrolidine-2-carboxylic acid methyl ester]
- MIC [1]: 0.03 µg/mL (≈ 0.0642 µM)
- MIC (Aspergillus flavus): 0.03 µg/mL (≈ 0.0642 µM)
- MIC (Candida krusei): > 50 µg/mL
- MIC (A Terreus 49): 0.015 µg/mL (≈ 0.0321 µM)
- MIC (Candida albicans): 25 µg/mL (≈ 53.5 µM)
- MIC (Aspergillus niger): 0.4 µg/mL (≈ 0.856 µM)
- MIC (Aspergillus terreus): 0.03 µg/mL (≈ 0.0642 µM)
- MIC (Candida parapsilosis): > 50 µg/mL
- MIC (Candida tropicalis): > 50 µg/mL
- MIC (Candida glabrata): > 50 µg/mL
- MIC [2]: 0.05 µg/mL (≈ 0.107 µM)

Structure (SMILES): O=C(Nc1ccc(Nc2ccccn2)cc1)C(=O)c1c(-c2ccccc2)cc2ccccn12 [Example 270, 2-Oxo-2-(2-phenyl-indolizin-3-yl)-N-[4-(pyridin-2-ylamino)-phenyl]-acetamide]
- MIC [1]: 0.015 µg/mL (≈ 0.0347 µM)
- MIC (Aspergillus flavus): 0.05 µg/mL (≈ 0.116 µM)
- MIC (Candida krusei): 50 µg/mL (≈ 116 µM)
- MIC (A Terreus 49): 0.12 µg/mL (≈ 0.277 µM)
- MIC (Candida albicans): 6.25 µg/mL (≈ 14.5 µM)
- MIC (Aspergillus niger): 0.05 µg/mL (≈ 0.116 µM)
- MIC (Aspergillus terreus): 0.05 µg/mL (≈ 0.116 µM)
- MIC (Candida parapsilosis): 50 µg/mL (≈ 116 µM)
- MIC (Candida tropicalis): 25 µg/mL (≈ 57.8 µM)
- MIC (Candida glabrata): 50 µg/mL (≈ 116 µM)
- MIC [2]: 0.05 µg/mL (≈ 0.116 µM)

Structure (SMILES): CN(C)c1ccc(NC(=O)C(=O)c2c(-c3ccccc3)cc3ccccn23)cc1C(=O)O [Example 274, 2-Dimethylamino-5-[2-oxo-2-(2-phenyl-indolizin-3-yl)-acetylamino]-benzoic acid]
- MIC [1]: > 50 µg/mL
- MIC (Aspergillus flavus): 50 µg/mL (≈ 117 µM)
- MIC (Candida krusei): > 50 µg/mL
- MIC (A Terreus 49): 12.5 µg/mL (≈ 29.2 µM)
- MIC (Candida albicans): 3.1 µg/mL (≈ 7.25 µM)
- MIC (Aspergillus niger): > 50 µg/mL
- MIC (Aspergillus terreus): > 50 µg/mL
- MIC (Candida parapsilosis): 50 µg/mL (≈ 117 µM)
- MIC (Candida tropicalis): 12.5 µg/mL (≈ 29.2 µM)
- MIC (Candida glabrata): > 50 µg/mL
- MIC [2]: 50 µg/mL (≈ 117 µM)

Structure (SMILES): O=C(Nc1ccc(C(F)(F)F)cc1)C(=O)c1c(-c2cccnc2)cc2ccccn12 [Example 212, 2-Oxo-2-(2-pyridin-3-yl-indolizin-3-yl)-N-(4-trifluoromethyl-phenyl)-acetamide]
- MIC [1]: 0.4 µg/mL (≈ 0.977 µM)
- MIC (Aspergillus flavus): 0.05 µg/mL (≈ 0.122 µM)
- MIC (Candida krusei): > 50 µg/mL
- MIC (Candida albicans): > 50 µg/mL
- MIC (Aspergillus niger): 0.4 µg/mL (≈ 0.977 µM)
- MIC (Aspergillus terreus): 0.1 µg/mL (≈ 0.244 µM)
- MIC (Candida parapsilosis): > 50 µg/mL
- MIC (Candida tropicalis): > 50 µg/mL
- MIC (Candida glabrata): 25 µg/mL (≈ 61.1 µM)
- MIC [2]: 0.8 µg/mL (≈ 1.95 µM)

Structure (SMILES): COCCNC(=O)C(=O)c1c(-c2cccnc2)cc2ccccn12 [Example 185, N-(2-Methoxy-ethyl)-2-oxo-2-(2-pyridin-3-yl-indolizin-3-yl)-acetamide]
- MIC (Candida krusei): > 50 µg/mL
- MIC (Candida albicans): 50 µg/mL (≈ 155 µM)
- MIC (Candida parapsilosis): 50 µg/mL (≈ 155 µM)
- MIC (Candida tropicalis): 12.5 µg/mL (≈ 38.7 µM)
- MIC (Candida glabrata): > 50 µg/mL

Structure (SMILES): COc1ccc(NC(=O)C(=O)c2c(-c3ccccc3C)cc3ccccn23)cc1 [Example 232, N-(4-Methoxy-phenyl)-2-oxo-2-(2-o-tolyl-indolizin-3-yl)-acetamide]
- MIC [1]: 0.062 µg/mL (≈ 0.161 µM)
- MIC (Aspergillus flavus): 0.015 µg/mL (≈ 0.039 µM)
- MIC (A Terreus 49): 0.015 µg/mL (≈ 0.039 µM)
- MIC (Aspergillus niger): 0.008 µg/mL (≈ 0.0208 µM)
- MIC (Aspergillus terreus): 0.031 µg/mL (≈ 0.0806 µM)
- MIC [2]: 0.062 µg/mL (≈ 0.161 µM)

Structure (SMILES): CC(=O)c1ccc(NC(=O)C(=O)c2c(-c3ccccc3)cc3ccccn23)cc1 [Example 205, N-(4-Acetyl-phenyl)-2-oxo-2-(2-phenyl-indolizin-3-yl)-acetamide]
- MIC [1]: 0.5 µg/mL (≈ 1.31 µM)
- MIC (Aspergillus flavus): 0.062 µg/mL (≈ 0.162 µM)
- MIC (A Terreus 49): 0.062 µg/mL (≈ 0.162 µM)
- MIC (Aspergillus niger): 0.062 µg/mL (≈ 0.162 µM)
- MIC (Aspergillus terreus): 0.031 µg/mL (≈ 0.0811 µM)
- MIC [2]: 0.5 µg/mL (≈ 1.31 µM)

Structure (SMILES): Cc1ncccc1-c1cc2ccccn2c1C(=O)C(=O)Nc1ccc(OCC(F)(F)C(F)F)cc1 [Example 283, 2-[2-(2-Methyl-pyridin-3-yl)-indolizin-3-yl]-2-oxo-N-[4-(2,2,3,3-tetrafluoro-propoxy)-phenyl]-acetamide]
- MIC [1]: 0.2 µg/mL (≈ 0.412 µM)
- MIC (Aspergillus flavus): 0.015 µg/mL (≈ 0.0309 µM)
- MIC (A Terreus 49): 0.05 µg/mL (≈ 0.103 µM)
- MIC (Aspergillus niger): 0.05 µg/mL (≈ 0.103 µM)
- MIC (Aspergillus terreus): 0.1 µg/mL (≈ 0.206 µM)
- MIC [2]: 0.2 µg/mL (≈ 0.412 µM)
